According to patent US6777405B2, “Detection and treatment of duplex polynucleotide damage” (California Institute of Technology, priority 1997, dated 2004):

Experiments:
[1] = tested on: B-form DNA (33mer correctly matched hairpin, 25mer B-DNA); assay: Photocleavage on correctly matched hairpin and competitive titration with unlabeled B-DNA; format: binding
Procedure: (§1) The thermodynamic binding constant was determined to be 8.4 (±1.0)×10^5 M^−1. Similar DNA photocleavage titrations at other mismatch sites have measured the affinity of Δ [Rh(bpy)2(chrysi)]^3+ between 1×10^7 and 3×10^5 M^−1. To examine the level of selectivity the average binding constant of Δ[Rh(bpy)2(chrysi)]^3+ to B-form DNA was also determined. Photocleavage on a 33mer correctly matched hairpin and competitive titration with unlabeled 25mer B-DNA yielded a value of 4 (±2)×10^4 M^−1 for the average non-specific binding affinity.

[2] = tested on: DNA duplexes having a single base pair mismatch (SEQ ID NO:1/SEQ ID NO:2); assay: Photocleavage of 17-mer DNA duplexes with a single base pair mismatch (365 nm, PAGE); format: biochemical
Procedure: A set of DNA duplexes was prepared having the following sequence:
3′-[…]-5′(SEQ ID NO:1)
5′-[…]-3′(SEQ ID NO:2),
where X and Y were varied to provide A-T, G-C, and the following mismatches: C-C, C-A, T-T, A-A, T-C, T-G, G-A, and G-G. All oligonucleotides were prepared using standard phosphoramidite chemistry, and were purified by reverse phase HPLC. The oligonucleotides were 5′ end-labeled with γ-^32P ATP (Dupont-NEN) and T4 polynucleotide kinase (New England Biolabs).
Duplexes (10 μM) were incubated with Δ or Λ [Rh(bpy)2(chrysi)]^3+(1 μM in 50 mM Tris, 20 mM NaOAc, 18 mM NaCl, pH 7.0) for 11 minutes, then irradiated for 13 min at 365 nm using an Oriel HgXe arc lamp. The products were analyzed by PAGE (20%, denaturing), imaged using a Molecular Dynamics Phosphorimager. The lanes labeled A+G and C+T are standard Maxam-Gilbert sequencing reactions: the remaining columns show cleavage (or lack of cleavage) for each tested mismatch with each enantiomer. […] Here, cleavage occurred to the 3′ side of the mismatch site. […] Unlike the other recognized mismatches, the cleavage 3′ to C-A results in two products having different gel mobility, possibly the result of chemically different polymer termini. The cleavage of A-A was also distinctive.

[3] = tested on: hairpin DNA oligonucleotide (SEQ ID NO:3) having a single C-C mismatch; assay: Photocleavage titration on hairpin DNA with single C-C mismatch; conditions: 313 or 365 nm, Rh complex at 0.10× DNA concentration, single binding site model fit
Procedure: A hairpin DNA oligonucleotide was synthesized with the sequence:
5′-[…]-3′ (SEQ ID NO:3), having a single C-C mismatch. The hairpin was photocleaved as described in Example 2 above with Δ[Rh(bpy)2(chrysi)]^3+ at either 313 nm or 365 nm for 7.5 to 15 min. Hairpin DNA concentration was varied from 3×10^−10 M to 1×10^−4 M, with the Rh complex used at 0.10× the DNA concentration. The cleavage products were eluted through 20% denaturing polyacrylamide gels, and analyzed using a Molecular Dynamics Phosphorimager and ImageQuant software. Cleavage was observed 3′ to the C-C mismatch on both sides of the hairpin: only the cleavage band closest to the end label was quantitated. Data from multiple trials was normalized (open circles) and fit to a standard single binding site binding model (solid line).
as §1

[4] = tested on: mismatch-sequence context combinations in DNA duplexes; assay: Photocleavage with systematically changed bases 5′ and 3′ of the mismatch site; format: biochemical; conditions: flanking bases 5′ and 3′ of the mismatch systematically changed
[5] = duplex 10 μM, complex 1 μM, 13 min at 365 nm
[6] = duplex 10 μM, complex 1 μM, 13 min at 365 nm, compared with C-C

Substance	average non-specific binding affinity [1]	photocleavage at A-A mismatch, base 3′ to the site [2, 5]	photocleavage at the A-A site itself [2, 5]	photocleavage at C-A mismatch ([2]; duplex 10 μM, complex 1 μM, 13 min at 365 nm, at the mismatched C and the base 3′ to the mismatch site)	photocleavage at T-C mismatch [2, 6]	photocleavage at T-T mismatch [2, 6]	photocleavage at C-C mismatch ([2]; duplex 10 μM, complex 1 μM, pH 7.0, irradiated 13 min at 365 nm, cleavage to the 3′ side of the mismatch site)	thermodynamic binding constant [3]	mismatch-sequence context combinations at which photocleavage was observed (count) [4]	mismatch-sequence context combinations at which photocleavage was observed (percent) [4] [%]	mismatch pairs cleaved among all tested pairs ([2]; A-T, G-C, C-C, C-A, T-T, A-A, T-C, T-G, G-A, G-G tested)	photocleavage at A-A mismatch relative to the other enantiomer [2, 5]
Δ-[Rh(bpy)2(chrysi)]Cl3 [Δ[Rh(bpy)2(chrysi)]^3+]	4 (±2)×10^4 M^−1	strong cleavage	a small amount of cleavage	Strong cutting	less intense cleavage	less intense cleavage	strongest cleavage intensity	8.4 (±1.0)×10^5 M^−1	83 of 104	80		
Λ-[Rh(bpy)2(chrysi)]Cl3 [Λ enantiomer]											The A-A mismatch is the only pair cleaved	weaker cleavage
